This note sets out measurements from patent publication EP2112152A1, “Dihydropteridinones as Plk Inhibitors” (GPC Biotech AG, priority 2008, dated 2009).

Common to all, as to assay type: cell-based
For assay [1], the target named is Plk1 (Homo sapiens, UniProt P53350). As to the kind of experiment: Cellular Plk1 kinase activity: nucleophosmin (B23) Ser4 phosphorylation in HCT116 cells (MSD electrochemiluminescence). Also on record: host or cells: HCT116. Conditions: 100 ng/ml nocodazole, 4 hours after compound addition, read-out: Biochemical IC50 Nucleophosmin assay. As for the experimental part: We observed the surprising finding that compounds of the invention were able to penetrate cell membranes and retained their activity as Plk1 inhibitors against native Plk1 expressed within living cancer cells.
Cellular Plk1 kinase activity was measured by quantification of nucleophosmin (B23) Ser4 phosphorylation in a cancer cell line. Nucleophosmin (B23) Ser4 is phosphorylated by Plk1, and this phosphorylation can be specifically detected by cross-reactivity of a phospho-Mek1/2 antibody that is able to recognizes a mitotic-specific phosphorylated form of nucleophosmin (B23) in a nocodazole dependent way (Zhang, H., Shi, X., Paddon, H., Hampong, M., Dai, W., and Pelech, S. (2004) B23/Nuleophosmin Serin 4 Phosphorylation Mediates Mitotic Functions of Polo-like Kinase 1. J. Biol. Chem., 279(34), 35726-35734).
Briefly, HCT116 cells (ATCC, Order No. CCL-247) were plated in 96 well dishes 24 hours prior to nocodazole treatment at 25 000 cells per well. Cells were then treated with 100 ng/ml nocodazole (Sigma-Aldrich, # M1404). 20 hours after nocodazole treatment, cells were exposed to the test compounds at various concentrations appropriate to determine an IC50. 4 hours after compound addition, medium was carefully removed and 120 µl of Complete Tris Lysis Buffer (R60TX; MSD, Gaithersburg MD) was added to each well. Samples were then stored at -20°C.
The level of nucleophosmin (B23) Ser4 phosphorylation in these cell lysis samples was estimated by electrochemiluminescence detection using the Meso Scale Discovery ("MSD") Technology Platform (MSD, Gaithersburg MD). The protocol used was as recommended by the manufacturer with the use of a phospho-Mek1/2 antibody (Cell Signalling, #9121) as primary antibody, and is as follows.
The cell lysates were thawed at room temperature and 40 µl were incubated on 96-well MULTI-ARRAY High Bind plates (L11XB; MSD) for 1.5 - 2 hours at room temperature. The supernatants were then removed and 150 µl of a 5% (w/v) solution of Blocker A (R93AA; MSD) in Tris Wash Buffer (R61TX; MSD) were added to each well. The plates were then incubated for 1 hour at room temperature before removal of the Blocker A solution and washed 4 times with 200 µl Tris Wash Buffer. 25 µl primary antibody (anti-phospho-MEK1/2, Cell Signalling, #9121, rabbit polyclonal), diluted 1:250 in a 1% (w/v) solution of Blocker A in Tris Wash Buffer, were added to each well. The plates were then incubated for 1 hour at room temperature before removal of the antibody solution and washed 4 times with 200 µl Tris Wash Buffer. Then, 25 µl of labelled secondary antibody (SULFO-TAG Goat Anti-Rabbit IgGAntibody (R32AB; MSD), diluted 1:500 in a 1% (w/v) solution of Blocker A in Tris Wash Buffer) were added to each well. The plates were then incubated for 1 hour at room temperature before removal of the antibody solution and washed 4 times with 200 µl Tris Wash Buffer. Then, […] of 1x Read Buffer T (R92TC; MSD) were carefully added to each well and the plates were quantitatively detected for each well with a SECTOR™ Imager 6000 (MSD).
Inhibitory activity of the compounds (IC) was calculated as % inhibition of nucleophosmin (B23) Ser4 phosphorylation compared to cells not treated with nocodazole.

The subject of assay [2] is HT-29. Kind of assay: SRB cell proliferation assay, HT-29. The note with it: Homo sapiens, HT-29, 72 h, 72 hours, SRB assay; read-out: CELLULAR IC50 HT-29. Here is the method: (§1) We observed the surprising finding that compounds of the invention were useful in inhibiting proliferation of tumor cell lines (see Table 3).
(§2) Cells were exposed to the test compounds at various concentrations appropriate to determine an IC50 for 72 hours. Cell proliferation was measured using the SRB assay according to Shekan et al (J Natl Cancer Inst (1990) 82, 1107-112) in order to estimate the IC50 values shown in Table 3. Briefly, cells were plated in 96 well dishes 24 hours prior to compound addition at the densities specified in Table 5.1. The assay was terminated with the addition of cold TCA to a final concentration of 10% after growth medium has been removed and the plates were incubated over night at 4°C. The plates were then washed 5 times with water and 100µl of a Sulforhodamine B solution (4%) was added to each well. The plates were then incubated for 10 minutes at room temperature before removal of unbound dye by washing with 1% acetic acid. The bound dye was solubilised with 10 mM Trizma base and the absorbance read at OD520.
(§3) Inhibitory activity of the compounds (IC) was calculated as % inhibition of cell proliferation compared to cells treated with the solvent (DMSO).
(§4) Table 8.1: 18-Cell Line Panel
A general note: Sulforhodamine B stains cellular protein and so reports cell mass.

The subject of assay [3] is HCT 116. As to the kind of experiment: SRB cell proliferation assay, HCT 116. Conditions: Homo sapiens, HCT-116, 72 h, 72 hours, SRB assay; read-out: CELLULAR IC50 HCT 116. Here is the method: as §1, §2, §3, §4
Assay [4] concerns IMR-90. Kind of assay: SRB cell proliferation assay, IMR-90. The note with it: Homo sapiens, 72 hours, SRB assay, slow cycling cell line, read-out: CELLULAR IC50 IMR-90. Here is the method:
as §1, §2, §3, §4

Plk1, sequence (P53350 whole entry, species assumed): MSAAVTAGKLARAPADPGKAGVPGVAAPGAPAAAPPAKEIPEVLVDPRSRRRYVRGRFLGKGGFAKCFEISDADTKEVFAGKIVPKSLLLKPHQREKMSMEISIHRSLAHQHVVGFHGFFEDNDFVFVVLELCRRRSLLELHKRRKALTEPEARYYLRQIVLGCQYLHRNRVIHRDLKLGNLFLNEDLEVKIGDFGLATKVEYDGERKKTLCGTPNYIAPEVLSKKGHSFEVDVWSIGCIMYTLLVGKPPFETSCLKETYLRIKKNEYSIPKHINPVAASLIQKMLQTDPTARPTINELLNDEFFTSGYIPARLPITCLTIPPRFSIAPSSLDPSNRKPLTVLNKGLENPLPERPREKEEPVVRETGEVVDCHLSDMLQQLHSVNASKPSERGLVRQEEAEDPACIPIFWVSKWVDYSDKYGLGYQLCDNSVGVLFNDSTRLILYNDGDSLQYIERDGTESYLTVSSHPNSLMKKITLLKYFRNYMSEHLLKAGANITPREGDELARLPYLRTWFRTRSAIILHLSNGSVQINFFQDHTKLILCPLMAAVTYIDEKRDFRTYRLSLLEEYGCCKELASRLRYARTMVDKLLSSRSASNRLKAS

What is called IC50 is the concentration needed to halve the response being measured. Take `CCC1C(=O)N(C)c2cnc(Nc3ccc(C(=O)NC4CCN(C)CC4)cc3OC)nc2N1N(C)C` (single isomer, unassigned) [Compound 36, 4-(8-dimethylamino-7-ethyl-5-methyl-6-oxo-5,6,7,8-tetrahydro-pteridin-2-ylamino)-3-methoxy-N-(1-methyl-piperidin-4-yl)-benzamide]: the IC50 in assay [1], in assay [2], in assay [3] and in assay [4] was > 1 µM each time.

Consider `CCC1C(=O)N(C)c2cnc(Nc3ccc(C(=O)NCCN4CCCC4)cc3OC)nc2N1N(C)C` (centres unmarked) [Compound 2, 4-(8-Dimethylamino-7-ethyl-5-methyl-6-oxo-5,6,7,8-tetrahydro-pteridin-2-ylamino)-3-methoxy-N-(2-pyrrolidin-1-yl-ethyl)-benzamide], for which the concentration for half-maximal inhibition (IC50) in assay [1] is < 0.1 µM; in assay [2], < 1 µM; in assay [3], < 1 µM; in assay [4], > 1 µM.

Take `CCC1C(=O)N(C)c2cnc(Nc3ccc(C(=O)N[C@H]4CC[C@H](N5CCN(CC6CC6)CC5)CC4)cc3OC)nc2N1N(C)CC` (relative stereo) [Compound 26, N-[trans-4-(4-Cyclopropylmethyl-piperazin-1-yl)-cyclohexyl]-4-[7-ethyl-8-(ethyl-methyl-amino)-5-methyl-6-oxo-5,6,7,8-tetrahydro-pteridin-2-ylamino]-3-methoxy-benzamide]: the IC50 in assay [1] is < 0.1 µM; in assay [2], < 1 µM; in assay [3], < 1 µM; in assay [4] it was > 1 µM.

On to `CCC1C(=O)N(C)c2cnc(Nc3ccc(C(=O)NCC4CCN(CC)CC4)cc3OC)nc2N1N(C)CC(C)C` (centres unmarked) [Compound 23, 4-[7-Ethyl-8-(isobutyl-methyl-amino)-5-methyl-6-oxo-5,6,7,8-tetrahydro-pteridin-2-ylamino]-N-(1-ethyl-piperidin-4-ylmethyl)-3-methoxy-benzamide], for which the IC50 was < 0.1 µM in assay [1], < 1 µM in assay [2], < 1 µM in assay [3] and > 1 µM in assay [4].

On to “4-[8-(Cyclobutylmethyl-methyl-amino)-7-ethyl-5-methyl-6-oxo-5,6,7,8-tetrahydro-pteridin-2-ylamino]-N-[trans-4-(4-cyclopropylmethyl-piperazin-1-yl)-cyclohexyl]-3-methoxy-benzamide [Compound 35]”, for which the IC50 in assay [1] is < 0.5 µM.

As to `CCC1C(=O)N(C)c2cnc(Nc3ccc(C(=O)NC4CCN(C)CC4)cc3OC)nc2N1N(C)C` (single isomer, unassigned) [Compound 37, 4-(8-dimethylamino-7-ethyl-5-methyl-6-oxo-5,6,7,8-tetrahydro-pteridin-2-ylamino)-3-methoxy-N-(1-methyl-piperidin-4-yl)-benzamide], in assay [1], the IC50 was < 0.1 µM.

In the case of “4-(8-Dimethylamino-7-ethyl-5-methyl-6-oxo-5,6,7,8-tetrahydro-pteridin-2-ylamino)-3-methoxy-N-[4-(4-methyl-piperazin-1-yl)-phenyl]-benzamide [Compound 8]”, the IC50 in assay [1] is < 0.1 µM.

Regarding `CCC1C(=O)N(C)c2cnc(Nc3ccc(C(=O)NCC4CCN(Cc5ccccc5)CC4)cc3OC)nc2N1N(C)C` (centres unmarked) [Compound 12, N-(1-Benzyl-piperidin-4-ylmethyl)-4-(8-dimethylamino-7-ethyl-5-methyl-6-oxo-5,6,7,8-tetrahydro-pteridin-2-ylamino)-3-methoxy-benzamide], the IC50 in assay [1] is < 0.1 µM; in assay [2], < 1 µM; in assay [3], < 1 µM; in assay [4], > 1 µM.

With `CCC1C(=O)N(C)c2cnc(Nc3ccc(C(=O)NC4CCN(C)CC4)cc3OC)nc2N1N(C)CC1CCC1` (centres unmarked) [Compound 33, 4-[8-(Cyclobutylmethyl-methyl-amino)-7-ethyl-5-methyl-6-oxo-5,6,7,8-tetrahydro-pteridin-2-ylamino]-3-methoxy-N-(1-methyl-piperidin-4-yl)-benzamide], the IC50 in assay [1] is < 0.1 µM; in assay [2], < 1 µM; in assay [3], < 1 µM; in assay [4], > 1 µM.

Turning to `CCC1C(=O)N(C)c2cnc(Nc3ccc(C(=O)NC4CCN(C)CC4)cc3OC)nc2N1N(C)Cc1ccccc1` (centres unmarked) [Compound 15, 4-[8-(Benzyl-methyl-amino)-7-ethyl-5-methyl-6-oxo-5,6,7,8-tetrahydro-pteridin-2-ylamino]-3-methoxy-N-(1-methyl-piperidin-4-yl)-benzamide], the IC50 in assay [1] was < 0.1 µM; in assay [2], < 1 µM; in assay [3], < 1 µM; in assay [4] it was > 1 µM.

Consider `CCCN(C)N1c2nc(Nc3ccc(C(=O)N[C@H]4CC[C@H](N5CCN(CC6CC6)CC5)CC4)cc3OC)ncc2N(C)C(=O)C1CC` (relative stereo) [Compound 19, N-[trans-4-(4-Cyclopropylmethyl-piperazin-1-yl)-cyclohexyl]-4-[7-ethyl-5-methyl-8-(methyl-propyl-amino)-6-oxo-5,6,7,8-tetrahydro-pteridin-2-ylamino]-3-methoxy-benzamide], for which the IC50 was < 0.1 µM in assay [1], < 1 µM in assay [2], < 1 µM in assay [3] and > 1 µM in assay [4].

On to “4-(8-Dimethylamino-7-ethyl-5-methyl-6-oxo-5,6,7,8-tetrahydro-pteridin-2-ylamino)-N-[4-(4-ethyl-piperazin-1-yl)-phenyl]-3-methoxy-benzamide [Compound 9]”, for which, in assay [1], the IC50 is < 0.1 µM.

As to “4-[8-(Cyclopentylmethyl-methyl-amino)-7-ethyl-5-methyl-6-oxo-5,6,7,8-tetrahydro-pteridin-2-ylamino]-N-(1-ethylpiperidin-4-ylmethyl)-3-methoxy-benzamide [Compound 29]”, the 50% inhibitory concentration (IC50) in assay [1] was < 0.1 µM.

In the case of “N-(2-Diethylamino-ethyl)-4-(8-dimethylamino-7-ethyl-5-methyl-6-oxo-5,6,7,8-tetrahydro-pteridin-2-ylamino)-3-methoxy-benzamide [Compound 5]”, the half-inhibitory concentration (IC50) in assay [1] was < 0.1 µM.

Turning to “4-(8-Dimethylamino-7-ethyl-5-methyl-6-oxo-5,6,7,8-tetrahydro-pteridin-2-ylamino)-3-methoxy-N-(4-piperidin-1-ylmethyl-phenyl)-benzamide [Compound 10]”, the half-maximal inhibitory concentration (IC50) in assay [1] was < 0.1 µM.

Take “N-(2-Diisopropylamino-ethyl)-4-(8-dimethylamino-7-ethyl-5-methyl-6-oxo-5,6,7,8-tetrahydro-pteridin-2-ylamino)-3-methoxy-benzamide [Compound 7]”: the IC50 in assay [1] was < 0.1 µM.

Take “4-(8-Dimethylamino-7-ethyl-5-methyl-6-oxo-5,6,7,8-tetrahydro-pteridin-2-ylamino)-3-methoxy-N-(2-piperidin-1-yl-ethyl)-benzamide [Compound 6]”: in assay [1], the IC50 was < 0.1 µM.
